How the values were obtained:
[1] = tested on: human retinal microvascular endothelial cells (HRMEC); assay: VEGF-induced HRMEC proliferation study; format: cell-based
Experimental: VEGF-Induced Human Retinal Microvascular Endothelial Cells (HRMEC) Proliferation Study
VEGF is a factor which promotes neovascularization and is thought to be one of the causes of development or progression of age-related macular degeneration (Prog. Retinal Eye Res., 22 (1), 1-29 (2003)). Therefore, the inhibitory effect of the compounds of the invention against VEGF-induced cell proliferation is assessed by using human retinal vascular endothelial cells (HRMEC).
HRMEC are seeded in 96-well plates at 2.0×10^3 cells/well, and is cultured under the conditions of 5% CO2/95% air for 24 hours. Then the culture medium is exchanged with CSC medium containing 10% fetal bovine serum and the cells are cultured for 24 hours. The culture broth is exchanged with vehicle medium or study medium containing the compound of the invention at 0.1, 1.0, 10, or 100 microM. After preincubation for 1 hour, VEGF-A solution is added to be a concentration of 10 ng/ml, and the cells cultured for 24 hours. The culture broth without adding VEGF-A solution is also treated in the same manner. Then to the culture broth is added CCK-8, and the cells are cultured for 3 hours, then the absorbance (OD492) is measured.
In accordance with the following formula, the cell proliferation inhibition rate (%) of each compound-treated group is calculated. The number of examples of each group is six. Cell proliferation inhibition rate (%)=([…])×100 [equation] BO: absorbance of vehicle-treated group BX: absorbance of compound-treated group BN: absorbance of non-treated group

[2] = tested on: choroidal neovascularization; assay: Laser-induced choroidal neovascularization (CNV) model; format: in vivo, male C57BL/6J mouse; details: in comparison to the vehicle-treated group
Experimental: Laser-Induced Choroidal Neovascularization (CNV) Model A male C57BL/6J mouse is used. Mydrin P ophthalmic solution (registered trademark, Santen Pharmaceutical) is instilled into the right eye of the mouse to cause mydriasis. Animals are anesthetized, and laser irradiation is performed on around the circumference of the optic disk with eight equally space using a laser photocoagulation apparatus. After photocoagulation, intravitreal administration of drugs to the right eye (administering 2 microL of a solution of 60 microM and 600 microM using a solvent obtained by mixing 0.1N NaOH and pH 7.2 PBS containing 1.5×10^-3N HCl, at the ratio of 16:84) or oral administration/subcutaneous administration/intraperitoneal administration is conducted. After instillation of […] (registered trademark, Daiichi Sankyo) ophthalmic solution 0.5% into the right eye, the ocular fundus photography is promptly performed using an ocular fundus camera. […] Choroidal flat mounts specimens are observed using a confocal laser scanning microscope, and the CNV area of the image is calculated using the analysis software OLYMPUS FLUOVIEW FV1000.

## CC(C)(C)c1cc2c(cc1Cl)C=C(C(=O)O)[C@@H](C(F)(F)F)O2 [Compound A, (S)-6-chloro-7-(1,1-dimethylethyl)-2-trifluoromethyl-2H-1-benzopyran-3-carboxylic acid]
[1]; Compound A alone, without VEGF-A, FIG. 1 left side
  effect on the proliferation of HRMEC: no effect
[1]; VEGF-A 10 ng/ml, 24 hours, compound at 0.1, 1.0, 10, or 100 microM, FIG. 1 right side
  inhibition of the proliferation of HRMEC induced by VEGF-A: inhibits the proliferation of HRMEC induced by VEGF-A in a dose-dependent manner
[1]; at 10 to 100 microM, VEGF-A 10 ng/ml
  inhibition of VEGF-A-induced cell proliferation: inhibits the cell proliferation to control levels
[2]; choroidal flat mount, day 15 after laser, FIG. 2
  CNV area: significantly reduced
[2]; histopathological specimens, FIG. 3
  CNV area (pathological image): significantly reduced
